From patent US10357477B2, “Anticancer compounds” (REGENTS OF THE UNIVERSITY OF MINNESOTA, priority 2016, dated 2019)

Test system: MIA PaCa-2 cells
Experiment: Cell viability assay (MTT) in MIA PaCa-2 cells
Assay type: cell-based
Settings: Homo sapiens, antiproliferative activity, 72 h
Protocol: MIA PaCa-2 cells (CRL-1420, ATCC) were maintained in DMEM media supplemented with 10% FBS, 2.5% HS, 1% GlutaMAX, 1% sodium pyruvate, 100 U/mL penicillin, and 100 μg/mL streptomycin. Cell culture media and additives were purchased from Gibco. Cells were plated in 96-well plates at |1−2.5|×10^4 cells per well in the DMEM growth media. One microliter of a 2-fold serially diluted compound solution in DMSO (Sigma) starting at 20 mM (100 μM final concentration) was added to each well. The final volume in each well was 200 μL, yielding a final DMSO concentration of 0.5%. Control wells contained 0.5% DMSO (100% viability) or 25% DMSO (background) and all reactions were done in triplicate. The plate was incubated for 72 h at 37° C. in a 5% CO2/95% air humidified atmosphere.
Measurement of cell viability was carried out using a modified method of Mosmann based on 3-(4,5-dimethylthiazol-2-yl)-2,5-diphenyltetrazolium bromide (MTT, Sigma). MTT solution was prepared fresh at 1 mg/mL in serum-free and phenol red-free RPMI 1640 media. After 200 μL of MTT solution was added to each well, the plate was incubated as described above for 3 h. The MTT solution was removed, and the formazan crystals were solubilized with 200 μL of isopropanol. The plate was read on a SpectraMax i3 spectrophotometer (Molecular Devices) at 570 nm for formazan and 650 nm for background subtraction. EC50 values were calculated by fitting the data in GraphPad Prism software. EC50 values were determined in triplicate.

EC50 [µM] | SMILES
10 | Cc1nn(Cc2ccccc2)c(C)c1NC(=O)c1ccc(COc2ccccc2)cc1 [Compound A1, N-(1-Benzyl-3,5-dimethyl-1H-pyrazol-4-yl)-4-(phenoxymethyl)benzamide]
> 100 | Cc1nn(Cc2ccc(C(N)=O)cc2)c(C)c1NC(=O)c1ccc(COc2ccccc2)cc1 [Compound A2a, N-(1-(4-Carbamoylbenzyl)-3,5-dimethyl-1H-pyrazol-4-yl)-4-(phenoxymethyl)benzamide]
6.4 | Cc1nn(Cc2cccc(C(=O)Nc3ccccc3)c2)c(C)c1NC(=O)c1ccc(COc2ccccc2)cc1 [Compound A4d, 3-((3,5-Dimethyl-4-(4-(phenoxymethyl)benzamido)-1H-pyrazol-1-yl)methyl)-N-phenylbenzamide]
17 | CNC(=O)c1cccc(Cn2nc(C)c(N(C)C(=O)c3ccc(COc4ccccc4)cc3)c2C)c1 [Compound B1, N-(3,5-Dimethyl-1-(3-(methylcarbamoyl)benzyl)-1H-pyrazol-4-yl)-N-methyl-4-(phenoxymethyl)benzamide]
6.1 | CNC(=O)c1cccc(Cn2nc(C)c(NCc3ccc(COc4ccccc4)cc3)c2C)c1 [Compound B2, 3-((3,5-Dimethyl-4-((4-(phenoxymethyl)benzyl)amino)-1H-pyrazol-1-yl)methyl)-N-methylbenzamide]
25 | CNC(=O)c1cccc(Cn2nc(C)c(NS(=O)(=O)c3ccc(COc4ccccc4)cc3)c2C)c1 [Compound B3, 3-((3,5-Dimethyl-4-((4-(phenoxymethyl)phenyl)sulfonamido)-1H-pyrazol-1-yl)methyl)-N-methylbenzamide]
8.3 | CNC(=O)c1cccc(Cn2nc(C)c(NC(=O)c3ccc(CSc4ccccc4)cc3)c2C)c1 [Compound C1, 3-((3,5-Dimethyl-4-(4-((phenylthio)methyl)benzamido)-1H-pyrazol-1-yl)methyl)-N-methylbenzamide]
17 | CNC(=O)c1cccc(Cn2nc(C)c(NC(=O)c3ccc(CNc4ccccc4)cc3)c2C)c1 [Compound C2, 3-((3,5-Dimethyl-4-(4-((phenylamino)methyl)benzamido)-1H-pyrazol-1-yl)methyl)-N-methylbenzamide]
32 | CNC(=O)c1cccc(Cn2nc(C)c(NC(=O)c3cccc(COc4ccccc4)c3)c2C)c1 [Compound C6, N-(3,5-Dimethyl-1-(3-(methylcarbamoyl)benzyl)-1H-pyrazol-4-yl)-3-(phenoxymethyl)benzamide]
14 | CNC(=O)c1cccc(Cn2nc(C)c(NC(=O)c3ccc(COC4CCCCC4)cc3)c2C)c1 [Compound C7, 3-((4-(4-((Cyclohexyloxy)methyl)benzamido)-3,5-dimethyl-1H-pyrazol-1-yl)methyl)-N-methylbenzamide]
9.1 | CNC(=O)c1cccc(Cn2nc(C)c(NC(=O)c3ccc(COc4ccc5ccccc5c4)cc3)c2C)c1 [Compound D1, 3-((3,5-Dimethyl-4-(4-((naphthalen-2-yloxy)methyl)benzamido)-1H-pyrazol-1-yl)methyl)-N-methylbenzamide]
10 | CNC(=O)c1cccc(Cn2nc(C)c(NC(=O)c3ccc(COc4cccc(C#N)c4)cc3)c2C)c1 [Compound D7b, 3-((4-(4-((3-Cyanophenoxy)methyl)benzamido)-3,5-dimethyl-1H-pyrazol-1-yl)methyl)-N-methylbenzamide]
11 | CNC(=O)c1cccc(Cn2nc(C)c(NC(=O)c3ccc(COc4ccccc4[N+](=O)[O-])cc3)c2C)c1 [Compound D8a, 3-((3,5-Dimethyl-4-(4-((2-nitrophenoxy)methyl)benzamido)-1H-pyrazol-1-yl)methyl)-N-methylbenzamide]
10 | CNC(=O)c1cccc(Cn2nc(C)c(NC(=O)c3ccc(COc4cccc([N+](=O)[O-])c4)cc3)c2C)c1 [Compound D8b, 3-((3,5-Dimethyl-4-(4-((3-nitrophenoxy)methyl)benzamido)-1H-pyrazol-1-yl)methyl)-N-methylbenzamide]
9.7 | CNC(=O)c1cccc(Cn2nc(C)c(NC(=O)c3ccc(COc4ccc([N+](=O)[O-])cc4)cc3)c2C)c1 [Compound D8c, 3-((3,5-Dimethyl-4-(4-((4-nitrophenoxy)methyl)benzamido)-1H-pyrazol-1-yl)methyl)-N-methylbenzamide]
6.7 | CNC(=O)c1cccc(Cn2nc(C)c(NC(=O)c3ccc(COc4ccc(C(F)(F)F)cc4C)nc3)c2C)c1 [Compound E5a, N-(3,5-Dimethyl-1-(3-(methylcarbamoyl)benzyl)-1H-pyrazol-4-yl)-6-((2-methyl-4-(trifluoromethyl)phenoxy)methyl)nicotinamide]
9.4 | CNC(=O)c1cc(Cn2nc(C)c(NC(=O)c3ccc(COc4ccc(C(F)(F)F)cc4C)nc3)c2C)ccn1 [Compound E5b, 4-((3,5-Dimethyl-4-(6-((2-methyl-4-(trifluoromethyl)phenoxy)methyl)nicotinamido)-1H-pyrazol-1-yl)methyl)-N-methylpicolinamide]
8.4 | CNC(=O)c1cccc(Cn2nc(C)c(NC(=O)c3ccc(Oc4ccccc4)cc3)c2C)c1 [Compound E6a, 3-((3,5-Dimethyl-4-(4-phenoxybenzamido)-1H-pyrazol-1-yl)methyl)-N-methylbenzamide]
4.6 | CNC(=O)c1cccc(Cn2nc(C)c(NC(=O)c3ccc(Oc4ccc(C(F)(F)F)cc4)cc3)c2C)c1 [Compound E6b, 3-((3,5-Dimethyl-4-(4-(4-(trifluoromethyl)phenoxy)-benzamido)-1H-pyrazol-1-yl)methyl)-N-methylbenzamide]
1.2 | CNC(=O)c1cccc(Cn2nc(C)c(NC(=O)c3ccc(Oc4ccc(C(F)(F)F)cc4C)cc3)c2C)c1 [Compound E6c, 3-((3,5-Dimethyl-4-(4-(2-methyl-4-(trifluoromethyl)phenoxy)benzamido)-1H-pyrazol-1-yl)methyl)-N-methylbenzamide]
8.1 | CNC(=O)c1cc(Cn2nc(C)c(NC(=O)c3ccc(Oc4ccc(C(F)(F)F)cc4)cc3)c2C)ccn1 [Compound E7a, 4-((3,5-Dimethyl-4-(4-(4-(trifluoromethyl)phenoxy)-benzamido)-1H-pyrazol-1-yl)methyl)-N-methylpicolinamide]
10 | CNC(=O)c1cc(Cn2nc(C)c(NC(=O)c3ccc(Oc4ccc(C(F)(F)F)cc4C)cc3)c2C)ccn1 [Compound E7b, 4-((3,5-Dimethyl-4-(4-(2-methyl-4-(trifluoromethyl)phenoxy)-benzamido)-1H-pyrazol-1-yl)methyl)-N-methylpicolinamide]
22 | CNC(=O)c1cccc(Cn2nc(C)c(NC(=O)c3ccc(C(C)Oc4ccccc4)cc3)c2C)c1 (stereo not shown) [Compound F1, 3-((3,5-Dimethyl-4-(4-(1-phenoxyethyl)benzamido)-1H-pyrazol-1-yl)methyl)-N-methylbenzamide]
7.7 | CNC(=O)c1cccc(C(C)n2nc(C)c(NC(=O)c3ccc(COc4ccccc4)cc3)c2C)c1 (stereo not shown) [Compound F2, 3-(1-(3,5-Dimethyl-4-(4-(phenoxymethyl)benzamido)-1H-pyrazol-1-yl)ethyl)-N-methylbenzamide]
2.4 | CNC(=O)c1cccc(C(C)n2nc(C)c(NC(=O)c3ccc(COc4ccc(C(F)(F)F)cc4C)cc3)c2C)c1 (stereo not shown) [Compound F3, 3-(1-(3,5-Dimethyl-4-(4-((2-methyl-4-(trifluoromethyl)phenoxy)methyl)benzamido)-1H-pyrazol-1-yl)ethyl)-N-methylbenzamide]
4 | CNC(=O)c1cc(C(C)n2nc(C)c(NC(=O)c3ccc(COc4ccc(C(F)(F)F)cc4C)cc3)c2C)ccn1 (stereo not shown) [Compound F4, 4-(1-(3,5-Dimethyl-4-(4-((2-methyl-4-(trifluoromethyl)phenoxy)methyl)benzamido)-1H-pyrazol-1-yl)ethyl)-N-methylpicolinamide]
> 100 | CNC(=O)c1cccc(Cn2nc(C)c(NC(=O)c3ccc(COc4ccccn4)cc3)c2C)c1 [Compound G1, 3-((3,5-Dimethyl-4-(4-((pyridin-2-yloxy)methyl)benzamido)-1H-pyrazol-1-yl)methyl)-N-methylbenzamide]
24 | CNC(=O)c1cccc(Cn2nc(C)c(NC(=O)c3ccc(COc4cccnc4)cc3)c2C)c1 [Compound G2, 3-((3,5-Dimethyl-4-(4-((pyridin-3-yloxy)methyl)benzamido)-1H-pyrazol-1-yl)methyl)-N-methylbenzamide]
99 | CNC(=O)c1cccc(Cn2nc(C)c(NC(=O)c3ccc(COc4ccncc4)cc3)c2C)c1 [Compound G3, 3-((3,5-Dimethyl-4-(4-((pyridin-4-yloxy)methyl)benzamido)-1H-pyrazol-1-yl)methyl)-N-methylbenzamide]

Test system: Panc-1 cells
Experiment: Cell viability assay (MTT) in Panc-1 cells
Assay type: cell-based
Settings: Homo sapiens, antiproliferative activity, 72 h
Protocol: Panc-1 cells are maintained in RPMI 1640 (Invitrogen 11875) media supplemented with 10% FBS, 1% Penicillin/Streptomycin and 1% Glutamax-1. Cells were plated in 96-well plates at 25×10^4 cells/ml. After 24 hours, compounds were added at 9, 3× dilutions in triplicate from 100 uM final concentration in the appropriate growth media. Plates were incubated for 72 hours at 37° C. in a 5% CO2/95% air humidified atmosphere after which time the media was removed and MTT was added in RPMI phenol red free media. The MTT was removed after 3 hours and formazan crystals were solubilized with 200 μL of isopropanol. Plates were read on a Molecular Devices SpectraMax i3 spectrophotometer at 570 nm for formazan and 690 nm for background subtraction. EC50 values were calculated by fitting the data in GraphPad Prism software.

EC50 [µM] | SMILES
9 | Cc1nn(Cc2ccccc2)c(C)c1NC(=O)c1ccc(COc2ccccc2)cc1 [Compound A1, N-(1-Benzyl-3,5-dimethyl-1H-pyrazol-4-yl)-4-(phenoxymethyl)benzamide]
> 100 | Cc1nn(Cc2ccc(C(N)=O)cc2)c(C)c1NC(=O)c1ccc(COc2ccccc2)cc1 [Compound A2a, N-(1-(4-Carbamoylbenzyl)-3,5-dimethyl-1H-pyrazol-4-yl)-4-(phenoxymethyl)benzamide]
